Measurements published in patent US7419778B2, “Method for high throughput cell-based assays using versatile living microarrays” (PameGene B.V., priority 2002, dated 2008).

Tested on: E. coli XL2 Blue MRF′
Test: Sensitivity of E. coli to kanamycin in agar plugs on flow-through (Pam) substrate, zone of clearing
Format: cell-based
Details: 12 hours at 37° C.
Protocol: […] The porous nature of the substrate draws the molten agar into the pores by capillary action. These treated substrates were then overlaid with 10^6 cfu/ml E. coli XL2 MRF′ cells containing plasmid pUC18 that had been grown in 2TY broth with 100 μg/ml ampicillin and placed on 2TY plates with the same concentration of ampicillin. Plates were then incubated for 12 hours at 37° C.

## NC[C@H]1O[C@H](O[C@H]2[C@H](O)[C@@H](O[C@H]3O[C@H](CO)[C@@H](O)[C@H](N)[C@H]3O)[C@H](N)C[C@@H]2N)[C@H](O)[C@@H](O)[C@@H]1O [Kanamycin, kanamycin]
10 ng kanamycin, N=12
  Zone of clearing (diameter mm): 0.4 mm
100 ng kanamycin, N=16
  Zone of clearing (diameter mm): 2.1 mm
1000 ng kanamycin, N=12
  Zone of clearing (diameter mm): 3.5 mm
